The results in this text go back to PMC8147293, “Library of Selenocyanate and Diselenide Derivatives as In Vivo Antichagasic Compounds Targeting Trypanosoma cruzi Mitochondrion” (Pharmaceuticals, 2021).

Read-outs that look alike come from different tables or passages of the source.

Data set [1] deals with Trypanosoma cruzi intracellular amastigotes. In words: Screening against intracellular amastigotes in Vero cells (Giemsa counting). The data set is classed as cell-based. The method, then: Trypanocidal activity against amastigotes was determined according to the literature reported previously. […]. […] Each compound concentration was tested in triplicate in four separate determinations.

For data set [2], the system named is Trypanosoma cruzi. Put plainly: Parasitemia reactivation after immunosuppression in BALB/c mice. The data set is classed as in vivo. The note with it: 20 mg/kg per day for 5 days, compared to untreated mice. The method, then: Secondly, the experimental cure was determined using a double checking widely used in in vivo trypanocidal trials. This double checking—based on immunosuppression and PCR (Figure 2B,C, respectively)—was performed to evaluate the treatment effectiveness and the disease extent in both acute and chronic CD at the end of the in vivo timeline. The mice whose parasitemia and PCR remain negative after immunosuppression are considered cured.
Immunosuppression enhances the reactivation of any residual infection, which is proportional to the parasite survival rate.
(§1) Infection was carried out by intraperitoneal inoculation of 5 × 10^5 BTs of T. cruzi per mouse in 0.2 mL PBS [56]. The mice were treated by oral route (~200 µL) once daily for 5 consecutive days. The treatment for mice treated in the acute and chronic phases began when the infection was confirmed (9th day post-infection (dpi)) and was established that the animals had entered the chronic phase (100th dpi), respectively.
(§2) The mice were divided into six groups (n = 3 per group): 0, negative control group (uninfected and untreated mice); I, positive control group (infected and untreated mice); II, BZN group (mice infected and treated with BZN); III, 8 group (mice infected and treated with 8); IV, 10 group (mice infected and treated with 10); V, 15 group (mice infected and treated with 15). The tested compounds and BZN were prepared at 2 mg·mL^−1 in an aqueous suspension vehicle containing 5% (v/v) DMSO and 0.5% (w/v) hydroxypropyl methylcellulose, as previously reported. Therefore, doses of 20 mg·kg^−1 per day were administered for 5 consecutive days, and vehicle only was administered in the negative and positive control groups.
(§3) All in vivo assays for the evaluation of compounds in the acute and chronic CD (Scheme 1)—monitoring of parasitemia, immunosuppression, PCR [59, 60], ELISA [56], and clinical analysis [56]—were performed as previously described. PCR was based on the Spliced Leader (SL) intergenic region sequence of T. cruzi (for detailed description, see literature reported previously).

The target in data set [3] is T1, human erythrocytes CuZn-SOD (Homo sapiens, UniProt P00441).
T1 construct: commercial Cu/Zn-SOD from human erythrocytes (Sigma-Aldrich); purchased Sigma-Aldrich; host or cells: human erythrocytes
T1 sequence (P00441 whole entry): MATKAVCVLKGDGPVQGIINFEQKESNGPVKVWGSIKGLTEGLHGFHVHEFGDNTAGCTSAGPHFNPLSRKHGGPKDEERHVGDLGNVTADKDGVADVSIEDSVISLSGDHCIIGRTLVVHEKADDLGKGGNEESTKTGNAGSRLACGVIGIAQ
Put plainly: SOD enzymatic inhibition, CuZn-SOD. The data set is classed as biochemical. The note with it: 100 to 0.1 µM, read-out: CuZn-SOD IC50 (in brackets). As for the experimental part:
(§4) Excreted Fe-SOD protein—obtained and quantified as previously described [64]—and commercial Cu/Zn-SOD from human erythrocytes (Sigma-Aldrich) were exposed to the tested compounds at a concentration range from 100 to 0.1 µM to determine in vitro activities using the method previously described.

Data set [4] is classed as in vivo. The note with it: BALB/c mice, 20 mg/kg per day for 5 days. As for the experimental part: Finally, biochemical analyses were performed to assess the toxicity associated to the treatment of compound 8. Kidney, heart and liver biochemical markers were measured, including values from uninfected and BZN-treated mice (Table S2). […] The low toxicity allows compound 8 to be tested at higher doses, establishing an improved treatment schedule based on pharmacokinetics in order to reach a total parasite clearance.
as §3

The subject of data set [5] is epimastigotes of T. cruzi Arequipa strain. In words: Screening against extracellular epimastigotes (resazurin). The data set is classed as cell-based, Trypanosoma cruzi. The note with it: for IC50: Trypanosoma cruzi. The method, then:
Trypanocidal activity against epimastigotes of T. cruzi Arequipa strain (MHOM/Pe/2011/Arequipa, discrete typing unit V) was tested as previously described. In short, 5 × 10^5 epimastigotes·mL^−1 were treated by adding the tested compounds at a concentration range from 100 to 0.2 µM in 96-well microplates (200 µL·well^−1) for 48 h. Subsequently, resazurin sodium salt (Sigma-Aldrich) was added to be incubated for further 24 h. Finally, the absorbance was measured, and the trypanocidal activity was expressed as the IC50 (inhibitory concentration 50) using GraphPad Prism 6 software. Each compound concentration was tested in triplicate in three independent experiments.
In general terms: The colour change of resazurin is a common sign of viable cells or microbes.

Data set [6] concerns Trypanosoma cruzi. In words: PCR of seven organs/tissues of treated BALB/c mice (Spliced Leader sequence). The class given is in vivo. The method, then: To assess the efficacy of potential candidates by confirming the absence of infection in the target locations, PCR was carried out at the end of the in vivo timeline (Figure 2C). PCR was positive in seven organs/tissues for the untreated (control) mice groups in both phases, showing the presence of the typical nested amastigotes of the chronic CD.
as §1, §2, §3
Figure 2 (A) Parasitemia profiles of each group of mice infected with Trypanosoma cruzi and treated during the acute Chagas disease over a period of 55 days: control (untreated), benznidazole (BZN), 8, 10 and 15. Treatment days are represented in grey. […]. (B) Parasitemia reactivation by fresh blood in the chronic Chagas disease after the immunosuppression cycles for each group of mice treated during the acute and chronic phases of the disease: control (untreated), benznidazole (BZN), 8, 10, and 15. […]. (C) PCR analysis of seven organs/tissues with the Trypanosoma cruzi Spliced Leader (SL) intergenic region sequence in the chronic Chagas disease for each group of mice treated during the acute and chronic phases of the disease: (a) control (untreated), (b) benznidazole, (c) 8, (d) 10, and (e) 15.

A further data set concerns Trypanosoma cruzi Fe-SOD. In words: SOD enzymatic inhibition, Fe-SOD. The note with it: at 100 µM. The class given is biochemical. As for the experimental part: as §4
The subject of data set [7] is Trypanosoma cruzi. In words: Parasitemia monitoring in infected BALB/c mice, acute Chagas disease. The data set is classed as in vivo. The note with it: oral 20 mg/kg per day for 5 days from 9th dpi, versus untreated. The method, then: as §1, §2, §3
The subject of data set [8] is Trypanosoma cruzi bloodstream trypomastigotes (BTs). Put plainly: Screening against bloodstream trypomastigotes (resazurin). The data set is classed as cell-based.

One may read the IC50 as the concentration needed to halve the response being measured. On to `FC(F)(F)c1ccc(C[Se][Se]Cc2ccc(C(F)(F)F)cc2)cc1` [compound 8], for which the “Selectivity Index Amast.” value in [1] (IC50 Vero cells/IC50 amastigotes) is 55. For the same compound, the IC50 is 800 ± 200 nM in [1] (Trypanosoma cruzi, Table 1, intracellular amastigotes in Vero cells, 72 h, read-out: Activity IC50 Amast.); over 100000 nM in data set [3]; 1900 ± 100 nM in data set [5] (Table 1, T. cruzi epimastigotes, 48 h treatment + 24 h resazurin, read-out: Activity IC50 Epimast.); at most 10000 nM in data set [5] (Table S1, cultured epimastigote form of T. cruzi, read-out: Activity IC50); 1500 ± 300 nM in [8] (Trypanosoma cruzi, Table 1, bloodstream trypomastigotes, 24 h treatment + 4 h resazurin, read-out: Activity IC50 Trypomast.). Besides, the “reactivation of infection after immunosuppression” value in the data set on Trypanosoma cruzi [2] (mice treated in acute CD) turned out to be 67%; in the data set with Trypanosoma cruzi [2] (mice treated in chronic CD), 44%. For the same compound, the “death and body mass loss after treatment” value in data set [4] was “none of the mice died nor lost more than 10% body mass”. Also, the “kidney, heart and liver biochemical markers” value in data set [4] was “disturbed 2 days after treatment”. Further, the “Selectivity Index Epimast.” value in data set [5] (IC50 Vero cells/IC50 epimastigotes) was found to be 23. The “negative PCR (parasite-free locations)” value in the data set on Trypanosoma cruzi [6] (mice treated in acute CD) is recorded as 3/7; with Trypanosoma cruzi [6] (mice treated in chronic CD) it was 4/7. The Fe-SOD inhibition in the data set on Trypanosoma cruzi Fe-SOD came to 100%. The “parasitemia levels (counting BTs) during the acute CD” value with Trypanosoma cruzi [7] is recorded as “trypanocidal activity was even stronger”. The “Selectivity Index Trypomast.” value in data set [8] (IC50 Vero cells/IC50 trypomastigotes) was determined as 30.
